Experimental data taken from PubChem BioAssay (NCI).
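In this assay, cells in 96-well plates receive the compound at five concentrations for 48 hours. Endpoints are linearly interpolated between the surrounding concentrations. At the GI50, growth is halved. TGI denotes the concentration required for complete inhibition of growth.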

Legend:
Assay in all cases: NCI-60 cell line screen, 48 h
ACHN renal = tested on: ACHN renal
SK-MEL-28 melanoma = tested on: SK-MEL-28 melanoma
SR leukemia = tested on: SR leukemia
OVCAR-8 ovarian = tested on: OVCAR-8 ovarian
KM12 colon = tested on: KM12 colon
HCT-15 colon = tested on: HCT-15 colon
MOLT-4 leukemia = tested on: MOLT-4 leukemia
U251 CNS = tested on: U251 CNS
SN12C renal = tested on: SN12C renal
HT29 colon = tested on: HT29 colon
IGROV1 ovarian = tested on: IGROV1 ovarian
NCI/ADR-RES ovarian = tested on: NCI/ADR-RES ovarian
UO-31 renal = tested on: UO-31 renal
HOP-62 NSCLC = tested on: HOP-62 NSCLC
M14 melanoma = tested on: M14 melanoma
NCI-H460 lung = tested on: NCI-H460 lung
SK-MEL-5 melanoma = tested on: SK-MEL-5 melanoma
OVCAR-4 ovarian = tested on: OVCAR-4 ovarian
BT-549 breast = tested on: BT-549 breast
RPMI-8226 leukemia = tested on: RPMI-8226 leukemia
SW-620 colon = tested on: SW-620 colon
HCT-116 colon = tested on: HCT-116 colon
MALME-3M melanoma = tested on: MALME-3M melanoma
A549 NSCLC = tested on: A549 NSCLC
SF-539 CNS = tested on: SF-539 CNS
MCF7 breast = tested on: MCF7 breast
T-47D breast = tested on: T-47D breast
PC-3 prostate = tested on: PC-3 prostate
NCI-H226 lung = tested on: NCI-H226 lung
HL-60(TB) leukemia = tested on: HL-60(TB) leukemia
HOP-92 NSCLC = tested on: HOP-92 NSCLC
LOX IMVI melanoma = tested on: LOX IMVI melanoma
MDA-MB-231 breast = tested on: MDA-MB-231 breast
SF-268 CNS = tested on: SF-268 CNS
DU-145 prostate = tested on: DU-145 prostate
NCI-H23 lung = tested on: NCI-H23 lung
TK-10 renal = tested on: TK-10 renal
K-562 leukemia = tested on: K-562 leukemia
SK-MEL-2 melanoma = tested on: SK-MEL-2 melanoma
HS 578T breast = tested on: HS 578T breast
SK-OV-3 ovarian = tested on: SK-OV-3 ovarian
HCC-2998 colon = tested on: HCC-2998 colon
UACC-257 melanoma = tested on: UACC-257 melanoma
SNB-19 CNS = tested on: SNB-19 CNS
SF-295 CNS = tested on: SF-295 CNS
CAKI-1 renal = tested on: CAKI-1 renal
786-0 renal = tested on: 786-0 renal
COLO 205 colon = tested on: COLO 205 colon
SNB-75 CNS = tested on: SNB-75 CNS
OVCAR-3 ovarian = tested on: OVCAR-3 ovarian
RXF 393 renal = tested on: RXF 393 renal
OVCAR-5 ovarian = tested on: OVCAR-5 ovarian
NCI-H522 lung = tested on: NCI-H522 lung
CCRF-CEM leukemia = tested on: CCRF-CEM leukemia
EKVX NSCLC = tested on: EKVX NSCLC
A498 renal = tested on: A498 renal
UACC-62 melanoma = tested on: UACC-62 melanoma
MDA-MB-435 = tested on: MDA-MB-435
MDA-N = tested on: MDA-N

## CSc1nc2c(c(=O)n1C)CN(C1CCCCC1)C(=O)C(c1ccccc1)N2 (stereo not given)
ACHN renal
  GI50: 12.1 µM
  TGI: > 100 µM
SK-MEL-28 melanoma
  GI50: 17.1 µM
  TGI: 83.3 µM
SR leukemia
  GI50: 6.38 µM
  TGI: > 100 µM
OVCAR-8 ovarian
  GI50: 46.9 µM
  TGI: > 100 µM
KM12 colon
  GI50: 27.6 µM
  TGI: > 100 µM
HCT-15 colon
  GI50: 16.1 µM
  TGI: > 100 µM
MOLT-4 leukemia
  GI50: 12.2 µM
  TGI: 39 µM
U251 CNS
  GI50: 41.4 µM
  TGI: > 100 µM
SN12C renal
  GI50: 36 µM
  TGI: > 100 µM
HT29 colon
  GI50: 33.3 µM
  TGI: > 100 µM
IGROV1 ovarian
  GI50: 34.6 µM
  TGI: > 100 µM
NCI/ADR-RES ovarian
  GI50: 38.9 µM
  TGI: > 100 µM
UO-31 renal
  GI50: 34.1 µM
  TGI: > 100 µM
HOP-62 NSCLC
  GI50: > 100 µM
  TGI: > 100 µM
M14 melanoma
  GI50: 43.5 µM
  TGI: > 100 µM
NCI-H460 lung
  GI50: 37.2 µM
  TGI: > 100 µM
SK-MEL-5 melanoma
  GI50: 10.4 µM
  TGI: 25.7 µM
OVCAR-4 ovarian
  GI50: 35.2 µM
  TGI: > 100 µM
BT-549 breast
  GI50: 13.2 µM
  TGI: 49.4 µM
RPMI-8226 leukemia
  GI50: 11.3 µM
  TGI: > 100 µM
SW-620 colon
  GI50: 38.5 µM
  TGI: > 100 µM
HCT-116 colon
  GI50: 36.6 µM
  TGI: > 100 µM
MALME-3M melanoma
  GI50: 10.9 µM
  TGI: 43.5 µM
A549 NSCLC
  GI50: 38.4 µM
  TGI: > 100 µM
SF-539 CNS
  GI50: 51.7 µM
  TGI: > 100 µM
MCF7 breast
  GI50: 19.3 µM
  TGI: 66 µM
T-47D breast
  GI50: 29.3 µM
  TGI: > 100 µM
PC-3 prostate
  GI50: 21.7 µM
  TGI: > 100 µM
NCI-H226 lung
  GI50: 77.3 µM
  TGI: > 100 µM
HL-60(TB) leukemia
  GI50: 17.5 µM
  TGI: 67.5 µM
HOP-92 NSCLC
  GI50: 14.3 µM
  TGI: 91.4 µM
LOX IMVI melanoma
  GI50: 17.1 µM
  TGI: > 100 µM
MDA-MB-231 breast
  GI50: 27.4 µM
  TGI: > 100 µM
SF-268 CNS
  GI50: 25.3 µM
  TGI: > 100 µM
DU-145 prostate
  GI50: 64.4 µM
  TGI: > 100 µM
NCI-H23 lung
  GI50: 51.2 µM
  TGI: > 100 µM
TK-10 renal
  GI50: 31.4 µM
  TGI: > 100 µM
K-562 leukemia
  GI50: 4 µM
  TGI: > 100 µM
SK-MEL-2 melanoma
  GI50: 26.2 µM
  TGI: > 100 µM
HS 578T breast
  GI50: 15.9 µM
  TGI: 80.7 µM
SK-OV-3 ovarian
  GI50: 76.8 µM
  TGI: > 100 µM
HCC-2998 colon
  GI50: 35.9 µM
  TGI: > 100 µM
UACC-257 melanoma
  GI50: 38.2 µM
  TGI: > 100 µM
SNB-19 CNS
  GI50: 36.7 µM
  TGI: > 100 µM
SF-295 CNS
  GI50: 35.3 µM
  TGI: > 100 µM
CAKI-1 renal
  GI50: 26.9 µM
  TGI: > 100 µM
786-0 renal
  GI50: 68.3 µM
  TGI: > 100 µM
COLO 205 colon
  GI50: 30.9 µM
  TGI: > 100 µM
SNB-75 CNS
  GI50: 95.8 µM
  TGI: > 100 µM
OVCAR-3 ovarian
  GI50: 20.1 µM
  TGI: 82 µM
RXF 393 renal
  GI50: 49.5 µM
  TGI: > 100 µM
OVCAR-5 ovarian
  GI50: > 100 µM
  TGI: > 100 µM
NCI-H522 lung
  GI50: 11.9 µM
  TGI: > 100 µM
CCRF-CEM leukemia
  GI50: 11.3 µM
  TGI: > 100 µM
EKVX NSCLC
  GI50: 38.8 µM
  TGI: > 100 µM
A498 renal
  GI50: 292 nM
  TGI: 37.6 µM
UACC-62 melanoma
  GI50: 8.01 µM
  TGI: 57.8 µM
MDA-MB-435
  GI50: 19.1 µM
  TGI: > 100 µM

## Cc1c(CCCl)c(N=P(c2ccccc2)(c2ccccc2)c2ccccc2)n2c(nc3ccccc32)c1C#N
SK-MEL-28 melanoma
  TGI: > 10 µM
SR leukemia
  TGI: > 10 µM
OVCAR-8 ovarian
  TGI: > 10 µM
KM12 colon
  TGI: > 10 µM
HCT-15 colon
  TGI: > 10 µM
MOLT-4 leukemia
  TGI: > 10 µM
SN12C renal
  TGI: > 10 µM
HT29 colon
  TGI: > 10 µM
IGROV1 ovarian
  TGI: > 10 µM
HOP-62 NSCLC
  TGI: > 10 µM
M14 melanoma
  TGI: > 10 µM
SK-MEL-5 melanoma
  TGI: > 10 µM
RPMI-8226 leukemia
  TGI: > 10 µM
SW-620 colon
  TGI: > 10 µM
MALME-3M melanoma
  TGI: > 10 µM
A549 NSCLC
  TGI: > 10 µM
MCF7 breast
  TGI: > 10 µM
T-47D breast
  TGI: > 10 µM
PC-3 prostate
  TGI: > 10 µM
MDA-N
  TGI: > 10 µM
LOX IMVI melanoma
  TGI: > 10 µM
MDA-MB-231 breast
  TGI: > 10 µM
SF-268 CNS
  TGI: > 10 µM
DU-145 prostate
  TGI: > 10 µM
NCI-H23 lung
  TGI: > 10 µM
TK-10 renal
  TGI: > 10 µM
K-562 leukemia
  TGI: > 10 µM
SK-OV-3 ovarian
  TGI: > 10 µM
HCC-2998 colon
  TGI: > 10 µM
UACC-257 melanoma
  TGI: > 10 µM
SF-295 CNS
  TGI: > 10 µM
CAKI-1 renal
  TGI: > 10 µM
786-0 renal
  TGI: > 10 µM
COLO 205 colon
  TGI: > 10 µM
SNB-75 CNS
  TGI: > 10 µM
RXF 393 renal
  TGI: > 10 µM
CCRF-CEM leukemia
  TGI: > 10 µM
EKVX NSCLC
  TGI: > 10 µM
UACC-62 melanoma
  TGI: > 10 µM
